Measurements from patent publication US6596889B1, “Nitrates of bis-platinum complexes with polyamine ligands” (Novuspharma S.p.A., priority 1999, dated 2003).
Where a name gives a salt, the structure may show the parent alone.

Experiment: HPLC stability following heating at 40° C. for 12 days under atmospheric pressure
Assay type: physicochemical
Description: column: Lichrospher RP8 (5 μm), 125×4 mm
The following table reports the HPLC data concerning the stability of Compound 1 and of Compound A (prepared as described in example 16 of WO 98/03519) following heating at 40° C. for 12 days under atmospheric pressure.
The used chromatographic method is that described in Example 3 and Example 4. The values of […] are in percent area.

[1] = 12 days 40° C., atmospheric pressure

## [NH2][Pt+]([NH2])([Cl])[NH]CCC[NH2+]CCCC[NH2+]CCC[NH][Pt+]([NH2])([NH2])[Cl] [Compound 1, bis{trans(diammine)(chloro)platinum(II)}-μ-(1,12-diamino-4,9-diazadodecane-N^1, N^12) dinitrate salt.2HNO3]
[1]
  HPLC mean peak area: 98.4 percent area
  main impurity, retention time 7 min, HPLC area: 0.1 percent area
  main impurity, retention time 8 min, HPLC area: 0.1 percent area
  main impurity, retention time 12 min, HPLC area: 0.2 percent area
  main impurity, retention time 14 min, HPLC area: 0.9 percent area
  main impurity, retention time 30 min, HPLC area: <0.1 percent area
  main impurity, retention time 31 min, HPLC area: 0.2 percent area
T = 0
  HPLC mean peak area: 98.5 percent area
  main impurity, retention time 7 min, HPLC area: 0.1 percent area
  main impurity, retention time 8 min, HPLC area: 0.1 percent area
  main impurity, retention time 12 min, HPLC area: 0.1 percent area
  main impurity, retention time 14 min, HPLC area: 0.8 percent area
  main impurity, retention time 30 min, HPLC area: <0.1 percent area

## bis{trans(diammine)(chloro)platinum(II)}-μ-(1,12-diamino-4,9-diazadodecane-N^1, N^12)dichloride salt.2HCl [Compound A]
[1]
  HPLC mean peak area: 89.8 percent area
  main impurity, retention time 7 min, HPLC area: 0.8 percent area
  main impurity, retention time 8 min, HPLC area: 1.6 percent area
  main impurity, retention time 12 min, HPLC area: 0.6 percent area
  main impurity, retention time 14 min, HPLC area: 0.8 percent area
  main impurity, retention time 30 min, HPLC area: 2.8 percent area
  main impurity, retention time 31 min, HPLC area: 1.7 percent area
T = 0
  HPLC mean peak area: 92.5 percent area
  main impurity, retention time 7 min, HPLC area: 0.1 percent area
  main impurity, retention time 8 min, HPLC area: 0.2 percent area
  main impurity, retention time 12 min, HPLC area: 0.3 percent area
  main impurity, retention time 14 min, HPLC area: 1.3 percent area
  main impurity, retention time 30 min, HPLC area: 2.3 percent area
  main impurity, retention time 31 min, HPLC area: 0.7 percent area
